# Source: patent publication US11608335B2, “Somatostatin modulators and uses thereof” (CRINETICS PHARMACEUTICALS, INC., priority 2018, dated 2023)
# Where two headings read alike, the source gives them in different places.
# How the values were obtained:
# [1] = molecular target: T1, human somatostatin receptor subtype 2 (Homo sapiens, UniProt P30874); assay: cAMP assay for SST2R (inhibition of cAMP via human SST2 receptor); format: cell-based; conditions: Table B, read-out: SST2 potency
# T1 construct: expressed in transfected cells
# T1 sequence (P30874 whole entry): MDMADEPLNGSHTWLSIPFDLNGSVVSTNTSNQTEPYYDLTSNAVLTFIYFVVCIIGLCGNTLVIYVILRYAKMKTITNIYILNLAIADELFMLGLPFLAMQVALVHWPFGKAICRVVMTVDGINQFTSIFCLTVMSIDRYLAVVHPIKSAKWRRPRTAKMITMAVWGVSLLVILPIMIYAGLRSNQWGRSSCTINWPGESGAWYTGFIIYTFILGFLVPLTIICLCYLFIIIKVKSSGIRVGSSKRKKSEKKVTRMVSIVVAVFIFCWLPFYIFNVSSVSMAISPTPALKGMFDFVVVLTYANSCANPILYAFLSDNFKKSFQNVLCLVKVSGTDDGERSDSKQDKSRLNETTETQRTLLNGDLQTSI
# Description: cAMP Assay Protocol for SST2R:
# [2] = molecular target: T2, human somatostatin receptor subtype 3 (Homo sapiens, UniProt P32745); assay: cAMP assay for SST3R (inhibition of cAMP via human SST3 receptor); format: cell-based; conditions: from inhibition of cAMP via human SST5 receptor and human SST3 receptor
# T2 construct: expressed in transfected cells
# T2 sequence (P32745 whole entry): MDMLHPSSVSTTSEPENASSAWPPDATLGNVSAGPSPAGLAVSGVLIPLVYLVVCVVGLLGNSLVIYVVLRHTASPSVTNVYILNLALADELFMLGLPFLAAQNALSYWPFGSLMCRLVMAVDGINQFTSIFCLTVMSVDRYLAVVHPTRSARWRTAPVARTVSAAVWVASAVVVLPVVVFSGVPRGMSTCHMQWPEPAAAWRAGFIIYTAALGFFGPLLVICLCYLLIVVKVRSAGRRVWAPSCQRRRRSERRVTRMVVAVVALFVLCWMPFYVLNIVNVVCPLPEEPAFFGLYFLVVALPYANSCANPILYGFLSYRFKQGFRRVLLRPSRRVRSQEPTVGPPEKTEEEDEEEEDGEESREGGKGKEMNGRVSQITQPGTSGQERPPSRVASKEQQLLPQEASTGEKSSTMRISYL
# Description: cAMP Assay Protocol for SST3R:
# [3] = molecular target: T3, human somatostatin receptor subtype 4 (Homo sapiens, UniProt P31391); assay: cAMP assay for hSST4R (inhibition of cAMP via human SST4 receptor); format: cell-based; conditions: from inhibition of cAMP via human SST5 receptor and human SST4 receptor
# T3 construct: expressed in transfected cells
# T3 sequence (P31391 whole entry): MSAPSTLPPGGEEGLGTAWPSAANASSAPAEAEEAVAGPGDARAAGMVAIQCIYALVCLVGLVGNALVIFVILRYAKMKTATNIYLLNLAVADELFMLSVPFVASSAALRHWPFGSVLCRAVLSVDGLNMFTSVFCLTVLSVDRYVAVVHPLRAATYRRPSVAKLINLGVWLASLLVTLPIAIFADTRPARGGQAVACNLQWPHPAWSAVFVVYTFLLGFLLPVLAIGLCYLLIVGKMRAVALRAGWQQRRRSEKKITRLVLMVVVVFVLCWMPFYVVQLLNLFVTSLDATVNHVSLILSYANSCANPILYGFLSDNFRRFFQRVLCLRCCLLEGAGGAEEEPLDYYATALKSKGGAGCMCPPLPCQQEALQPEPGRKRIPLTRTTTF
# Description: cAMP Assay Protocol hSST4R:
# [4] = Liver microsomal stability assay; format: in vitro ADME; conditions: both sexes, human, pooled human liver microsomes; read-out: HLM Stability t½
# Procedure: Example B-2: Liver Microsomal Stability Assay Protocol
# The in vitro stabilities of compounds of interest were determined for various species using pooled male and female human, pooled male Sprague-Dawley rat, pooled male Cynomolgus monkey, and pooled male Beagle dog liver microsomes at microsomal protein concentrations of 0.5 mg/mL. Incubations were carried out in a potassium phosphate buffer (50 mM). The NADPH-generating system was composed of NADP+ (1 mM), magnesium chloride (3 mM), EDTA (1 mM), glucose-6-phosphate (5 mM) and glucose-6-phosphate dehydrogenase (1 Unit/mL) for all experiments. Compounds of interest in DMSO/acetonitrile were added to achieve a final incubation concentration of 1 μM (final DMSO content was 0.1% v/v and final acetonitrile content was 0.9%). The final incubation volume was 400 μL. Incubations were conducted at 37° C. for 0, 5, 10, 20, 40 and 60 minutes in a shaking water bath and terminated by removing 50 μL of incubation mixture and adding to 100 μL of ice cold acetonitrile containing internal standard. Following precipitation by centrifugation at 3500 rpm and 4° C. for 30 minutes, compounds of interest and internal standard were analyzed in the resultant supernatant using a multiple reaction monitoring (MRM) LC-MS/MS method. MS conditions were optimized for each analyte.
# (§1) Table E illustrates representative human liver microsomal stability and time dependent CYP2D6 inhibition (TDI) of exemplary compounds.
# [5] = molecular target: T4, Cytochrome P450 (CYP) 2D6 enzyme (Homo sapiens, UniProt P10635); assay: Cytochrome P450 (CYP) 2D6 enzyme time dependent inhibition (TDI) assay; format: in vitro ADME; conditions: human liver microsomes
# T4 construct: using pooled male and female human liver microsomes; from tissue; host or cells: pooled male and female human liver microsomes
# T4 sequence (P10635 whole entry): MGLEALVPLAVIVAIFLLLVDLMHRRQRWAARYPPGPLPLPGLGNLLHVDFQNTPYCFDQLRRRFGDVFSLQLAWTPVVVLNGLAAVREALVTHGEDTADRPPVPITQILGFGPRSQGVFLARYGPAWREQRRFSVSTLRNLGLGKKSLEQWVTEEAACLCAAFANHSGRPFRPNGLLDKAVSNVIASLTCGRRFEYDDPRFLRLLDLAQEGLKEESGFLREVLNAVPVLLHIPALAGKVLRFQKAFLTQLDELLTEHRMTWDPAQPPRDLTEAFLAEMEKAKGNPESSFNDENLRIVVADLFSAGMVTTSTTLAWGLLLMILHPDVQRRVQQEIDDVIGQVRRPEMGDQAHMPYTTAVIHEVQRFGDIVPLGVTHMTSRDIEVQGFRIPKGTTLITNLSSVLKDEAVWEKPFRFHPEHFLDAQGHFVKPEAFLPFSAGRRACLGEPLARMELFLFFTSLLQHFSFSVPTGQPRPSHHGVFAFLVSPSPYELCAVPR
# Procedure: Example B-3: Cytochrome P450 (CYP) 2D6 Enzyme Time Dependent Inhibition (TDI) Assay Protocol
# The NADPH-generating system mix was composed of potassium phosphate buffer pH 7.4 (50 mM), NADP+ (1 mM), magnesium chloride (3 mM), EDTA (1 mM), glucose-6-phosphate (5 mM), glucose-6-phosphate dehydrogenase (1 Unit/mL), human liver microsomes (0.1 mg/mL) and water. Compounds of interest in DMSO serial diluted to six different concentrations (final DMSO content of 0.1% v/v) were added to the NADPH-generating system. CYP 2D6 substrate Dextromethorphan was added at a final incubation concentration of 5 μM. The final incubation volume was 200 μL. Incubations were conducted at 37° C. for 10 minutes in a shaking water bath to evaluate the drug candidates as […] of CYP 2D6. In a separate test plate, drug candidates were pre-incubated at 37° C. for 30 minutes in a shaking water bath in NADPH-generating system mix in the absence of Dextromethorphan substrate to allow for the formation of metabolites. This plate was removed from the water bath and placed on ice for 5 minutes. Dextromethorphan substrate was then added and the plate was incubated at 37° C. for 10 minutes in a shaking water bath to determine if any metabolites formed during the 30 minute pre-incubation inhibit the CYP 2D6 enzyme. All incubations were terminated by removing 50 μL of incubation mixture and adding to 200 μL of ice cold acetonitrile containing internal standard. Following precipitation by centrifugation at 3500 rpm and 4° C. for 30 minutes, the resultant supernatant were analyzed by using a multiple reaction monitoring (MRM) LC-MS/MS method detecting for internal standard and the CYP 2D6 enzyme mediated Dextromethorphan O-demethylation metabolite Dextrorphan and IC50 values were determined.
# as §1
# [6] = molecular target: human somatostatin receptor subtype 5 (Homo sapiens, UniProt P35346); assay: cAMP assay for SST5R (inhibition of cAMP via human SST5 receptor); conditions: for Fold selectivity for SST5 vs SST2: SST5 over SST2, class symbols
# human somatostatin receptor subtype 5, sequence (P35346 whole entry): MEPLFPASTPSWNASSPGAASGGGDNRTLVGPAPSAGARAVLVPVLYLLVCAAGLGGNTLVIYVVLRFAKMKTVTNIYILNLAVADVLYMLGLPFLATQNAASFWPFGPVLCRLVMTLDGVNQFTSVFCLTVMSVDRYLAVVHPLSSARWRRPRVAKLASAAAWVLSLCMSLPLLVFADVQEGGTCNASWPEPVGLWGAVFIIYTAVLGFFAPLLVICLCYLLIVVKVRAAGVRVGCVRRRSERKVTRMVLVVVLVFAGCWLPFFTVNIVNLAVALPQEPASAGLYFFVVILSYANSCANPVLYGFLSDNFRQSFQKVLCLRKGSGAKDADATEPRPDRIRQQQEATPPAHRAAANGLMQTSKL
# [7] = t = 0 min pre-incubation, read-out: CYP2D6 inhibition, IC50 (μM) t = 0 min
# [8] = t = 30 min pre-incubation, read-out: CYP2D6 inhibition, IC50 (μM) t = 30 min
# [9] = read-out: SST5 potency, inhibition of cAMP via human SST5 receptor, Table B
EC50 [1] [nM],Fold selectivity for SST5 vs SST3 [2] [fold],Fold selectivity for SST5 vs SST4 [3] [fold],half-life at 1 μM [4] [h],"IC50 [5, 7] [µM]","IC50 [5, 8] [µM]",EC50 [6] [nM],Fold selectivity for SST5 vs SST2 [6],"EC50 [6, 9] [nM]",SMILES
100 to 1000,7.0,1.4,0.967,4.2,2.5,< 10,++ (++=100 to 499),< 10,"COc1cc(F)cc(-c2cncc(-c3nc4c(C)cccc4[nH]3)c2N2CC[C@H](N)C2)c1 [Compound 2-184, (3S)-1-[3-(3-fluoro-5-methoxyphenyl)-5-(4-methyl-1H-1,3-benzodiazol-2-yl)pyridin-4-yl]pyrrolidin-3-amine]"
100 to 1000,517,109,> 11.6,> 10,> 10,< 10,+++ (+++=≥500),< 10,"C[C@]1(N)CCN(c2c(-c3ccnc(C#N)c3)cncc2-c2nc3c(F)cccc3[nH]2)C1 [Compound 2-162, 4-[(3S)-3-amino-3-methylpyrrolidin-1-yl]-5-(4-fluoro-1H-1,3-benzodiazol-2-yl)-[3,4′-bipyridine]-2′-carbonitrile]"
100 to 1000,6.7,4.0,1.28,6.4,3.5,< 10,++ (++=100 to 499),< 10,"Cc1cccc2nc(-c3cncc(-c4cc(F)cc(Cl)c4)c3N3CC[C@H](N)C3)[nH]c12 [Compound 2-183, (3S)-1-[3-(3-chloro-5-fluorophenyl)-5-(4-methyl-1H-1,3-benzodiazol-2-yl)pyridin-4-yl]pyrrolidin-3-amine]"
